Experiments:
[1] = target: human CYP11B1 (Homo sapiens (Human), UniProt P15538); experiment: Cellular assay for CYP11B1 inhibition (V79MZh11B1 hamster fibroblasts, substrate 11-deoxycorticosterone); conditions: for sf: selectivity factor: IC50 (CYP11B2)/IC50 (CYP11B1): ratio IC50 (CYP11B2)/IC50 (CYP11B1); for IC50: read-out: IC50 value CYP11B1, Hamster fibroblasts expressing human CYP11B1, substrate 11-deoxycorticosterone, 100 nM, mean of at least three experiments
[2] = target: Human placental CYP19 (Homo sapiens (Human), UniProt P11511); experiment: CYP19 (aromatase) assay, human placental microsomes, 3H2O release; format: biochemical; conditions: substrate androstenedione, 500 nM, inhibitor concentration 500 nM; for inhibition at 0.5 µM: read-out: inhibition (%) CYP 19
Experimental: The enzyme was obtained from the microsomal fraction of freshly delivered human term placental tissue according to the procedure of Thompson and Siiteri (Thompson, E. A.; Siiteri, P. K. J. Biol. Chem. 1974, 249, 5364).
The isolated microsomes were suspended in a minimum volume of phosphate buffer (0.05 M, pH 7.4, 20% glycerol). Additionally, DTT (dithiothreitol, 10 mM) and EDTA (1 mM) were added to protect the enzyme from degradation. The enzyme preparation was stored at −70° C.
The assay was performed monitoring enzyme activity by measuring the ^3H2O formed from [1β-^3H]androstenedione during aromatization (Hartmann et al. J. Med. Chem. 1986, 29, 1362-1369). […] The test compounds were dissolved in DMSO and diluted with buffer. The final DMSO concentration in the control and inhibitor incubation was 2%. Each tube was pre-incubated for 5 min at 30° C. in a water bath. Microsomal protein was added to start the reaction (0.1 mg). The total volume for each incubation was 0.25 ml. The reaction was terminated by the addition of 200 μl of a cold 1 mM HgCl2 solution. After addition of 200 μl of an aqueous dextran-coated charcoal (DCC) suspension (2%), the vials were shaken for 20 min and centrifuged at 1500×g for 5 min to separate the charcoal-absorbed steroids. The supernatant was assayed for ^3H2O by counting in a scintillation mixture using a β-counter. The calculation of the IC50 values was performed by plotting the percent inhibition vs. the concentration of inhibitor on a semi-log plot.
The above experiment was conducted at least three times and a mean value for the CYP19 inhibition calculated.

[3] = target: human CYP11B2 (Homo sapiens (Human), UniProt P19099); experiment: Cellular assay for CYP11B2 inhibition (V79MZh11B2 hamster fibroblasts, substrate 11-deoxycorticosterone); conditions: for IC50: read-out: IC50 value CYP11B2, Hamster fibroblasts expressing human CYP11B2, 100 nM, mean of at least three experiments, n.i. = no inhibition at an inhibitor concentration of 500 nM
[4] = target: human CYP17 (Homo sapiens (Human), UniProt P05093); experiment: CYP17 inhibition assay (membrane fraction of E. coli expressing human CYP17, substrate progesterone); format: biochemical; conditions: 25 μM, inhibitor concentration 2.0 μM; for inhibition at 2 µM: read-out: inhibition (%) CYP 17
Experimental: Recombinant E. coli pJL17/OR coexpressing human CYP17 and rat NADPH-P450-reductase were grown and stored as described by Ehmer et al. (J. Steroid Biochem. Mol. Biol., 2000, 75, 57-63)
For isolation of membrane fractions, 5 ml of bacterial suspension with an OD578 of 50 were washed using phosphate buffer (0.05 M, pH 7.4, 1 mM MgCl2, 0.1 mM EDTA and 0.1 mM dithiothreitol). Bacteria were harvested by centrifugation (2000×g) and the pellet was resuspended in 10 ml ice-cold TES buffer (0.1 M tris-acetate, pH 7.8, 0.5 mM EDTA, 0.5 M sucrose). Lysozyme was added with 10 ml of ice-cold water resulting in a concentration of 0.2 mg/ml followed by incubation for 30 min on ice with continuous shaking. Spheroplasts were harvested by centrifugation (12000×g, 10 min), and resuspended in 4 ml of ice-cold phosphate buffer (the same as described above plus 0.5 mM phenylmethylsulfonylfluoride (PMSF)).
After that spheroplasts were sonicated on ice (pulse 20 s on, 30 s off, five times), using a sonicator Sonopuls HD60 (Bandelin, Berlin, Germany) at maximum power. Unbroken cells and debris were pelleted at 3000×g for 7 min, and the supernatant was centrifuged at 50000×g for 20 min at 4° C. The membrane pellet was resuspended in 2 ml of phosphate buffer (the same as described above) with 20% glycerol using an ultra-turrax T25 (IKA-Labortechnik, Staufen, Germany). Protein concentration was determined by the method of Lowry.
The assay was performed as follows: a solution of 6.25 nmol progesterone (in 5 μl methanol) in 140 μl phosphate buffer (0.05 M, pH 7.4, 1 mM MgCl2, 0.1 mM EDTA and 0.1 mM dithiothreitol), 50 μl NADPH generating system (in phosphate buffer with 10 mM NADP, 100 mM glucose-6-phosphate and 2.5 units of glucose-6-phosphate-dehydrogenase) and inhibitor (in 5 μl DMSO) was pre-incubated at 37° C. for 5 min. Control cups were supplemented with 5 μl DMSO without inhibitor. The reaction was started by adding 50 μl of a 1:5 diluted membrane suspension in phosphate buffer (0.8-1.0 mg protein per ml). The maximum DMSO concentration in each sample was 2%. After mixing, incubation was performed for 30 min at 37° C. Subsequently the reaction was stopped with 50 μl 1 N HCl.
Extraction of the steroids was performed by addition of 1.0 ml ethyl acetate and vigorous shaking for 1 min. After a centrifugation step (5 min, 2500×g) the organic phase (0.9 ml) was transferred into a fresh cup containing 0.25 ml of incubation buffer and 50 μl 1 N HCl and mixed again. After centrifugation, 0.8 ml ethyl acetate solution was evaporated to dryness in a fresh cup. After that the steroids were redissolved in solvent for HPLC analysis (Hutschenreuter et. al. J. Enz. Inhib. Med. Chem. 2004, 19, 17-32).
The above experiment was conducted at least three times and a mean value for the CYP17 inhibition calculated.

Sequence of human CYP11B2 (P19099 25-503): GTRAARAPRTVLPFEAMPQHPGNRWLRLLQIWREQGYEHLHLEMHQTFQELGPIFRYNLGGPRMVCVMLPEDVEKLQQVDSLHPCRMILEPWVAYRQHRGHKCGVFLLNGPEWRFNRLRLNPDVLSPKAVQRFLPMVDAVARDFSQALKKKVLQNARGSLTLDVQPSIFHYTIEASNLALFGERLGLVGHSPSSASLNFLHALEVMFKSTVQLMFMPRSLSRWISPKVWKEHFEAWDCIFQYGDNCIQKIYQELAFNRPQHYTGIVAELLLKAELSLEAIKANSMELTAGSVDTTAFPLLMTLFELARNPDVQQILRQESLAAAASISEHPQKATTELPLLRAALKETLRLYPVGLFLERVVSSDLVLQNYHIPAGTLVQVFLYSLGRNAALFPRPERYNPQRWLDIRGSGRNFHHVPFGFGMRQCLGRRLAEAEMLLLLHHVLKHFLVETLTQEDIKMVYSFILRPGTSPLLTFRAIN
Sequence of human CYP17 (P05093 whole entry): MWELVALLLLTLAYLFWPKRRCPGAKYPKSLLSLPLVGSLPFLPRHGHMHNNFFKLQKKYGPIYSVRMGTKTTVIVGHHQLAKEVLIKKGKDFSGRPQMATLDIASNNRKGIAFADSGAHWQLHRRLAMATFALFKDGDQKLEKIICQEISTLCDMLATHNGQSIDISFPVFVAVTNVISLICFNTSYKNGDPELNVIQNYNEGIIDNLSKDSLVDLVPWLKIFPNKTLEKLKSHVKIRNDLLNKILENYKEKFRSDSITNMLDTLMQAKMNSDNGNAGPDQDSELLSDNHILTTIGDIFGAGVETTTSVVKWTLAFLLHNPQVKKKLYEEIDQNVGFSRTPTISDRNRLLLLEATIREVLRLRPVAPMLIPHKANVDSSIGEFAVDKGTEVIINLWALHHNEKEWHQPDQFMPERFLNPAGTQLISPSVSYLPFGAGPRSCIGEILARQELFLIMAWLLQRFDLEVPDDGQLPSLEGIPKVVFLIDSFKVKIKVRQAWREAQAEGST
Sequence of Human placental CYP19 (P11511 whole entry): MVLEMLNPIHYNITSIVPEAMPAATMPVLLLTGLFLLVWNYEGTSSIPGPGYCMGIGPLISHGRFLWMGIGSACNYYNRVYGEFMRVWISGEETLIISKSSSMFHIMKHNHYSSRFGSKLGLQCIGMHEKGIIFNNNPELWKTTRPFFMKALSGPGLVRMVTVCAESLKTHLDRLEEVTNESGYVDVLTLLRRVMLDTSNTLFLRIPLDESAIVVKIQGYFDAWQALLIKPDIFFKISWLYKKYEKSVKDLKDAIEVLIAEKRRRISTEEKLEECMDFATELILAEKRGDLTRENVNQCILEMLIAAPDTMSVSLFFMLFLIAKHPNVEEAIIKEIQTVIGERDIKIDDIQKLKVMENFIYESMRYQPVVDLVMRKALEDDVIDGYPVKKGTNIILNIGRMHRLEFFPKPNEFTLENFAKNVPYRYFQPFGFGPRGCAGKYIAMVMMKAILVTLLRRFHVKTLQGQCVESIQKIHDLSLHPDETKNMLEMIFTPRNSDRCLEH
Sequence of human CYP11B1 (P15538 25-503): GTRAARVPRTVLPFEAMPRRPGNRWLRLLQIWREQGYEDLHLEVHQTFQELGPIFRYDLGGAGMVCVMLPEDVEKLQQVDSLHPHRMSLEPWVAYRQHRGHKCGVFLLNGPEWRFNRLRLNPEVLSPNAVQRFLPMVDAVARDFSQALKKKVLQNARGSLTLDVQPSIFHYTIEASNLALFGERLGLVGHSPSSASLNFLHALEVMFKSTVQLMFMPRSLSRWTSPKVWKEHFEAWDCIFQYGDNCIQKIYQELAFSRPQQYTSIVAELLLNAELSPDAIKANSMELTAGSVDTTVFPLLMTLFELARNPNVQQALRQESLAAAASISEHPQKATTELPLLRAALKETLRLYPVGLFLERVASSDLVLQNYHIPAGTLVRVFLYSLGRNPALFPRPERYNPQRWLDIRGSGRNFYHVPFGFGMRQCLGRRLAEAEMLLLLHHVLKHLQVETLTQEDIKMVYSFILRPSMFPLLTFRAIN

| Compound | sf: selectivity factor: IC50 (CYP11B2)/IC50 (CYP11B1) [1] | IC50 [1] [nM] | inhibition at 0.5 µM [2] [%] | IC50 [3] [nM] | inhibition at 2 µM [4] [%] | IC50 value CYP11B2 ([3]; Hamster fibroblasts expressing human CYP11B2, 100 nM, mean of at least three experiments, n.i. = no inhibition at an inhibitor concentration of 500 nM) | inhibition (%) CYP 19 [2] [%] | inhibition (%) CYP 17 [4] [%] |
| --- | --- | --- | --- | --- | --- | --- | --- | --- |
| COc1ccccc1-c1ccc(Cn2ccnc2)cn1 [Compound 12, 5-Imidazol-1-ylmethyl-2-(2-methoxy-phenyl)pyridine] | 26 | 167 | 4 | 4390 | 5 |  |  |  |
| Nc1ccccc1-c1ccc(Cn2ccnc2)cn1 [Compound 15, 2-(5-Imidazol-1-ylmethyl-pyridin-2-yl)-phenylamine] | 21 | 101 | 0 | 2110 | 6 |  |  |  |
| Nc1cccc(-c2ccc(Cn3ccnc3)cn2)c1 [Compound 16, 3-(5-Imidazol-1-ylmethyl-pyridin-2-yl)-phenylamine] | 31 | 110 | 2 | 3410 | 3 |  |  |  |
| Nc1ccc(-c2ccc(Cn3ccnc3)cn2)cc1 [Compound 17, 4-(5-Imidazol-1-ylmethyl-pyridin-2-yl)-phenylamine] | 5 | 106 | 1 | 528 | 4 |  |  |  |
| Cc1ccc(-c2ccc(Cn3ccnc3)cn2)cc1N [Compound 18, 5-(5-Imidazol-1-ylmethyl-pyridin-2-yl)-2-methyl-phenylamine] |  | 542 | 0 | > 1000 | 3 |  |  |  |
| c1ccc(N(c2ccccc2)c2ccc(-c3ccc(Cn4ccnc4)cn3)cc2)cc1 [Compound 22, [4-(5-Imidazol-1-ylmethyl-pyridin-2-yl)-phenyl]-diphenyl-amine] |  | 611 | 1 |  | 2 | n.i.^d |  |  |
| c1ccc2c(-c3ccc(Cn4ccnc4)cn3)cccc2c1 [Compound 23, 5-Imidazol-1-ylmethyl-2-naphthalen-1-yl-pyridine] | 49 | 42 | 5 | 2080 | 8 |  |  |  |
| c1ccc(-c2cc(Cn3ccnc3)cnc2-c2ccccc2)cc1 [Compound 25, 5-Imidazol-1-ylmethyl-2,3-diphenyl-pyridine] | 2.4 | 362 | 0 | 851 | 3 |  |  |  |
| c1csc(-c2ccc(Cn3ccnc3)cn2)c1 [Compound 31, 5-Imidazol-1-ylmethyl-2-thiophen-2-yl-pyridine] | 17 | 75 | 3 | 1240 | 8 |  |  |  |
| c1cn(Cc2ccc(-c3ccsc3)nc2)cn1 [Compound 32, 5-Imidazol-1-ylmethyl-2-thiophen-3-yl-pyridine] | 26 | 126 | 0 | 3260 | 3 |  |  |  |
| O=Cc1ccc(-c2ccc(Cn3ccnc3)cn2)s1 [Compound 34, 5-(5-Imidazol-1-ylmethyl-pyridin-2-yl)-thiophene-2-carbaldehyde] | 16 | 62 | 0 | 968 | 5 |  |  |  |

Further lines, results first:

| sf: selectivity factor: IC50 (CYP11B2)/IC50 (CYP11B1) [1] | IC50 [1] [nM] | inhibition at 0.5 µM [2] [%] | IC50 [3] [nM] | inhibition at 2 µM [4] [%] | IC50 value CYP11B2 ([3]; Hamster fibroblasts expressing human CYP11B2, 100 nM, mean of at least three experiments, n.i. = no inhibition at an inhibitor concentration of 500 nM) | inhibition (%) CYP 19 [2] [%] | inhibition (%) CYP 17 [4] [%] | Compound |
| --- | --- | --- | --- | --- | --- | --- | --- | --- |
| 6 | 73 |  | 416 |  |  | 30 | 5 | c1ccc(-c2cc(Cn3ccnc3)cnc2-c2ccccc2)cc1 [Compound 35, 5-Imidazol-1-ylmethyl-2,3-diphenyl-pyridine] |
| 16 | 16 | 19 | 251 | 0 |  |  |  | c1csc(-c2ncccc2Cn2ccnc2)c1 [Compound 36, 3-Imidazol-1-ylmethyl-2-thiophen-2-yl-pyridine] |
| 29 | 40 | 0 | 1160 | 4 |  |  |  | c1ccc2c(-c3ccc(Cn4ccnc4)cn3)csc2c1 [Compound 38, 2-Benzo[b]thiophen-3-yl-5-imidazol-1-ylmethyl-pyridine] |
| 31 | 167 | 0 | 5160 | 1 |  |  |  | c1coc(-c2ccc(Cn3ccnc3)cn2)c1 [Compound 39, 2-Furan-2-yl-5-imidazol-1-ylmethyl-pyridine] |
| 37 | 76 | 0 | 2830 | 8 |  |  |  | c1cn(Cc2ccc(-c3ccoc3)nc2)cn1 [Compound 40, 2-Furan-3-yl-5-imidazol-1-ylmethyl-pyridine] |
| 29 | 29 | 2.2 | 830 | 6.7 |  |  |  | c1coc(-c2cc(Cn3ccnc3)cnc2-c2ccco2)c1 [Compound 42, 2,3-Di-furan-2-yl-5-imidazol-1-ylmethyl-pyridine] |

Reference: patent US9394290B2, “Selective CYP11B1 inhibitors for the treatment of cortisol dependent diseases” (UNIVERSITAET DES SAARLANDES CAMPUS SAARBRUECKEN, priority 2010, dated 2016)
